“And” between values parts separate entries of the source, which are not always exact repeats. Equal entries are not always repeated. Toxic doses and inconclusive results are not listed. Cut-off read from the data, not from the text of the source: active = T/C of 150% or more; inactive = T/C below 125%.
System: L1210 leukemia ip in BDF1 mice, survival T/C
Experiment: NCI In Vivo Anticancer Drug Screen. Data for tumor model L1210 Leukemia (intraperitoneal) in B6D2F1 (BDF1) mice
Settings: endpoint: mean survival time, higher = longer survival
Summary of the method: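 Tumor cells were implanted, animals were treated, and survival was followed. The result divides the treated measurement by the vehicle-control measurement.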

[1] = dose: 100.0 mg/kg/injection, schedule: Q04DX003 (ip), vehicle: Klucel (hydroxypropylcellulose) (HPC)
[2] = dose: 200.0 mg/kg/injection, schedule: Q04DX003 (ip), vehicle: Klucel (hydroxypropylcellulose) (HPC)
[3] = dose: 100.0 mg/kg/injection, schedule: Q01DX001 (ip), vehicle: Klucel (hydroxypropylcellulose) (HPC)
[4] = dose: 200.0 mg/kg/injection, schedule: Q01DX001 (ip), vehicle: Klucel (hydroxypropylcellulose) (HPC)
[5] = dose: 100.0 mg/kg/injection, schedule: Q01DX001 (ip), vehicle: saline
[6] = dose: 200.0 mg/kg/injection, schedule: Q01DX001 (ip), vehicle: saline
[7] = dose: 400.0 mg/kg/injection, schedule: Q01DX001 (ip), vehicle: saline
[8] = dose: 400.0 mg/kg/injection, schedule: Q04DX003 (ip), vehicle: Klucel (hydroxypropylcellulose) (HPC)

Measured: T/C

O=C1COC(=O)CO1
inactive: dose: 50.0 mg/kg/injection, schedule: Q04DX003 (ip), vehicle: Klucel (hydroxypropylcellulose) (HPC) 104 % of control | dose: 100.0 mg/kg/injection, schedule: Q01DX009 (ip), vehicle: saline 86 % of control | [1] 100 % of control | dose: 200.0 mg/kg/injection, schedule: Q01DX009 (ip), vehicle: saline 86 % of control | [2] 96 % of control

CCCCN=C1NC(N)=NC(C)(C)N1
inactive: [3] 98 % of control | [4] 102 % of control

CCC(=O)Cc1ccc2[nH]c(C)cc(=O)c2c1
inactive: [5] 96 % of control | [6] 98 % of control | [7] 88 % of control

O=C(Nc1ccccc1)Oc1ccc(C2CCCCC2)cc1
inactive: dose: 100.0 mg/kg/injection, schedule: Q04DX002 (ip), vehicle: Klucel (hydroxypropylcellulose) (HPC) 93 % of control | dose: 200.0 mg/kg/injection, schedule: Q04DX002 (ip), vehicle: Klucel (hydroxypropylcellulose) (HPC) 121 % of control

CCCCCCCCCCCCCCCCOc1cccc(C=O)c1
inactive: dose: 100.0 mg/kg/injection, schedule: Q04DX003 (ip), vehicle: saline with Tween-80 97 % of control | dose: 200.0 mg/kg/injection, schedule: Q04DX003 (ip), vehicle: saline with Tween-80 93 % of control | dose: 400.0 mg/kg/injection, schedule: Q04DX003 (ip), vehicle: saline with Tween-80 116 % of control

COc1ccc(-c2oc3ccccc3c(=O)c2O)cc1OC
inactive: dose: 50.0 mg/kg/injection, schedule: Q01DX001 (ip), vehicle: saline 87 % of control | [5] 98 % of control | [6] 91 % of control | [7] 93 % of control

COC(=O)c1nccnc1N
inactive: dose: 50.0 mg/kg/injection, schedule: Q01DX009 (ip), vehicle: Klucel (hydroxypropylcellulose) (HPC) 94 % of control | dose: 75.0 mg/kg/injection, schedule: Q01DX001 (ip), vehicle: alcohol 108 % of control | dose: 100.0 mg/kg/injection, schedule: Q01DX009 (ip), vehicle: Klucel (hydroxypropylcellulose) (HPC) 97 % of control | [1] 94 % of control | dose: 150.0 mg/kg/injection, schedule: Q01DX001 (ip), vehicle: alcohol 105 % of control | dose: 200.0 mg/kg/injection, schedule: Q01DX009 (ip), vehicle: Klucel (hydroxypropylcellulose) (HPC) 108 % of control | [2] 92 % of control | dose: 300.0 mg/kg/injection, schedule: Q01DX001 (ip), vehicle: alcohol 100 % of control | [8] 95 % of control

CCCCCCCCCCCCCCCCCCCCC1CC(=O)OC1=O (stereo not drawn)
inactive: [1] 91 % of control | [2] 92 % of control | [8] 91 % of control

C/C(=N\NC(N)=O)C(F)(F)F
inactive: dose: 15.0 mg/kg/injection, schedule: Q01DX Z (ip), vehicle: carboxymethylcellulose (CMC) 110 % of control | dose: 30.0 mg/kg/injection, schedule: Q01DX Z (ip), vehicle: carboxymethylcellulose (CMC) 93 % of control | dose: 60.0 mg/kg/injection, schedule: Q01DX Z (ip), vehicle: carboxymethylcellulose (CMC) 100 % of control and 103 % of control | dose: 120.0 mg/kg/injection, schedule: Q01DX Z (ip), vehicle: carboxymethylcellulose (CMC) 103 % of control and 109 % of control | dose: 120.0 mg/kg/injection, schedule: Q01DX Z (oral), vehicle: carboxymethylcellulose (CMC) 109 % of control | dose: 240.0 mg/kg/injection, schedule: Q01DX Z (ip), vehicle: carboxymethylcellulose (CMC) 112 % of control | dose: 240.0 mg/kg/injection, schedule: Q01DX Z (oral), vehicle: carboxymethylcellulose (CMC) 101 % of control | dose: 480.0 mg/kg/injection, schedule: Q01DX Z (oral), vehicle: carboxymethylcellulose (CMC) 90 % of control

COc1ccc2c(c1OC)C1(CCN(C)C#N)CCCCC1CC2 (stereo not drawn)
inactive: [3] 95 % of control | [4] 95 % of control | dose: 400.0 mg/kg/injection, schedule: Q01DX001 (ip), vehicle: Klucel (hydroxypropylcellulose) (HPC) 86 % of control

COc1ccc2cc(OC)ccc2c1
inactive: dose: 100.0 mg/kg/injection, schedule: Q01DX001 (ip), vehicle: saline sonified 98 % of control | dose: 200.0 mg/kg/injection, schedule: Q01DX001 (ip), vehicle: saline sonified 96 % of control | dose: 400.0 mg/kg/injection, schedule: Q01DX001 (ip), vehicle: saline sonified 96 % of control

CCCNC(=O)Nc1cccc(Cl)c1
inactive: dose: 100.0 mg/kg/injection, schedule: Q01DX001 (ip), vehicle: carboxymethylcellulose (CMC) 102 % of control | dose: 200.0 mg/kg/injection, schedule: Q01DX001 (ip), vehicle: carboxymethylcellulose (CMC) 109 % of control | dose: 400.0 mg/kg/injection, schedule: Q01DX001 (ip), vehicle: carboxymethylcellulose (CMC) 105 % of control

From PubChem BioAssay AID248 (DTP/NCI, 2004)
